# Target: T1, CltA (formerly XtrG; CltA::GFP) (Aspergillus nidulans, UniProt Q5ATN3)
# T1 construct: gene ANIA_08347; full-length ORF from cDNA, GFP fusion, expressed in S. cerevisiae SC9721 with N. crassa beta-glucosidase gh1-1; plasma membrane
# Assay: growth complementation of S. cerevisiae SC9721 gh1-1 on cellobiose
# Assay type: cell-based
# Details: 0.1-2 % cellobiose as sole carbon source, 30 °C; intracellular beta-glucosidase gh1-1 coexpressed
# T1 sequence (Q5ATN3 entry or part of it): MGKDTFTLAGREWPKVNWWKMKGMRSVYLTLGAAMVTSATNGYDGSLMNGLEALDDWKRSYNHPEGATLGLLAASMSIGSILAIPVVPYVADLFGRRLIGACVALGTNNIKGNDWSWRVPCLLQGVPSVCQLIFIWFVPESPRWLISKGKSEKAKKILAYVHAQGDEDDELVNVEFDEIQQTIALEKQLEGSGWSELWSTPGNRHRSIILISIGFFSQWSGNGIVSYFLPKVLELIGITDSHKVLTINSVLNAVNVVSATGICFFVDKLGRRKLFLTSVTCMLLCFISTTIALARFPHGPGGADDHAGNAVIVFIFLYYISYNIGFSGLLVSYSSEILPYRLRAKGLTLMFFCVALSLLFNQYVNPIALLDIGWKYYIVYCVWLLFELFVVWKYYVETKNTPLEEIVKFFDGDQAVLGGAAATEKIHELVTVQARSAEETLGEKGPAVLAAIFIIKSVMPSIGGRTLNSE
structure (smiles),measurement,value
OC[C@H]1O[C@@H](O[C@H]2[C@H](O)[C@@H](O)C(O)O[C@@H]2CO)[C@H](O)[C@@H](O)[C@@H]1O (stereo partly shown) [cellobiose],growth complementation of S. cerevisiae SC9721 gh1-1 on cellobiose,"CltA, and to a lesser extent CltB, is able to transport cellobiose"

# From paper PMC5037631, “Identification and characterization of putative xylose and cellobiose transporters in Aspergillus nidulans” (Biotechnology for Biofuels, 2016)
